According to paper PMC12042267, “Expanding the Family of Monosubstituted 15-Membered Pyridine-Based Macrocyclic Ligands for Mn(II) Complexation in the Context of MRI” (Inorganic Chemistry, 2025):

Key:
[1] = Stability constants of Mn(II) complexes by pH-potentiometry, pMn and species distribution; assay type: physicochemical; conditions: species distribution, [Mn(II)] = [L] = 1.5 mM
Protocol: Metal stock solutions were prepared from the highest analytical grade chemicals, and their concentration was determined by complexometric titration with standardized Na2H2EDTA, using xylenol orange indicator in the presence of urotropine buffer (ZnCl2 and MnCl2); Eriochrome black T indicator in the presence of ammonium acetate buffer (CaCl2) or murexide indicator in ammonium solution (CuCl2). The concentration of the ligand stock solutions was determined by pH-potentiometric titrations (the difference between two consecutive inflection points of the ligand titration curve corresponds to two (L2) or one (L3) ligand equivalents). To determine the protonation constants of the ligand and stability constants of the metal complexes with selected divalent metal ions, pH-potentiometric titrations were carried out with 0.1 M NaOH at 2 mM ligand concentration, in the absence (for ligand protonation constants) or in the presence of one equivalent of metal ion (for stability constants). During the titration, the waiting time was 2 min between successive points (V0 = 5 mL). The temperature (25.0 ± 0.1 °C) was controlled by a circulating water bath. The ionic strength was set to I = 0.15 M NaCl. All titrations were performed under a nitrogen atmosphere to avoid the effect of CO2. Titrations were carried out in the pH range from 1.8 (L3) or 2.0 (L2) (after the addition of 1 M HCl solution to the starting ligand solution in the titration cell) to pH 11 (or until precipitation of the metal hydroxide). All pH-potentiometric titrations were performed using a 785 DMP Titrino titration workstation with a combined electrode (Metrohm). The p[H] (p[H] = −log[H+], concentration in molarity) was measured in each titration with a combined pH glass electrode (Metrohm) filled with 3 M KCl. The electrode was calibrated in hydrogen ion concentration by titration of HCl with KOH in 0.1 M electrolyte solution.[37] A plot of potential versus p[H] allows determination of the electrode standard potential (E°) and the slope factor (f).
The protonation constants of the ligand (log Ki^H) are defined as follows [drawing 1] where i = 1, 2, ··· and [Hi–1L] and [H^+] are the equilibrium concentrations of the ligand (i = 1), its protonated forms (i = 2, ···), and the hydrogen ion. The stability (KML) and the protonation (KMHiL) constants for the metal complexes are defined as follows [drawing 2] [drawing 3] For the calculations of the equilibrium constants, the HYPERQUAD program was used.[38] The number of fitted data pairs was between 190 and 240. The ionic product of water at 25 °C and 0.1 M ionic strength is pKw = 13.77.[39] Fixed values were used for pKw, ligand acidity constants, and total concentrations of metal, ligand, and acid. All values and errors (one standard deviation) reported are at least the average of two independent experiments.
To obtain further information about the impact of a given pendant arm, it is interesting to calculate pMn values (pMn = −log[Mn(II)]free at pH 7.4, cMn = clig= 10^–5 M) which provide a more direct comparison of MnL stabilities, independently of differences in protonation constants (Table 4). […] Nevertheless, the too large, 15-membered macrocyclic cavity combined with a lower number of pendant arms provide ca. 2 orders of magnitude lower stability for Mn(II) complexation as compared to the 12-membered pyclen derivatives (Table 4).

[2] = Water solubility of complex samples; assay type: physicochemical; conditions: at the concentrations required for the measurements
Text: MnL2 and MnL3 complex samples for kinetic and relaxometric studies have been prepared by mixing MnCl2 and L2 or L3 solutions of known concentrations in a 1:1.05 ratio and by adjusting the pH to 7.4. Mn(II) concentration in each sample was verified by bulk magnetic susceptibility measurements.

[3] = fixed during the fitting procedure ref 28; cited from earlier work
[4] = 1H relaxivity (relaxometry, NMRD profiles); assay type: physicochemical; conditions: for r1 (relaxivity): 20 MHz, 0.47 T
Protocol: At 60 MHz, ^1H longitudinal (T1) and transverse (T2) relaxation times were measured with a Bruker Minispec MQ-60 NMR analyzer. The temperature was set to 25.0 °C and controlled with a circulating water bath. T1 and T2 values were determined, respectively, by using the inversion recovery method (180−τ–90°) and the Carl–Purcell–Meiboom–Gill (CPMG) spin–echo pulse sequence. […]
^1H NMRD profiles on aqueous solutions of MnL2 (cMn2+ = 0.98 mM; pH = 7.22) and MnL3 (cMn2+ = 0.96 mM; pH = 7.20) were recorded at 25 and 37 °C on a SMARTracer Fast Field Cycling NMR relaxometer (Stelar; 0.00024–0.24 T, 0.01–10 MHz ^1H Larmor frequency) and a WP80 NMR electromagnet adapted to variable-field measurements (Bruker; 0.47–1.88 T, 20–80 MHz ^1H Larmor frequency). The temperature was maintained by a gas flow and monitored by a VTC91 temperature control unit based on previous calibration with a Pt resistance temperature probe.

| Structure (SMILES) | pH above which full complex formation is achieved [1] | water solubility [2] | AO/ℏ (scalar coupling constant) [3] | relaxivity (constant between pH 7 and 11) ([4]; 1.41 T and 25 °C, pH 7 to 11) [mM^–1 s^–1] | r1 (relaxivity) ([4]; 25 °C) [mM^–1 s^–1] | r1 (relaxivity) ([4]; 25 °C, listed as [Mn(L2)(H2O)]^+) [mM^–1 s^–1] | r1 (relaxivity) ([4]; 37 °C) [mM^–1 s^–1] | r1 (relaxivity) ([4]; 25 °C, listed as [Mn(L3)(H2O)]^+) [mM^–1 s^–1] |
| --- | --- | --- | --- | --- | --- | --- | --- | --- |
| O.[Mn+2].c1ccc(CN2CCOCCOCCNCc3cccc(n3)C2)nc1 [MnL2] | > 6 | water-soluble | 38.6 ^e 10^6 rad s^–1 | 2.62 | ~2.5 | 2.49 | 1.98 |  |
| O.[Mn+2].c1cc2nc(c1)CN(Cc1nc3ccccc3[nH]1)CCOCCOCCNC2 [MnL3] | > 6 | water-soluble | 38.6 ^e 10^6 rad s^–1 |  | ~2.5 |  | 2.24 | 2.77 |
